Results as given in PubChem BioAssay AID2060360 (Molecular Pharmacology Branch, DTP, NCI, 2025).

Test system: 282377-053-R-J1-PDC tumor spheroids, viability
Test: Anticancer human tumor 282377-053-R-J1-PDC patient-derived colon adenocarcinoma cell line growth inhibition [TAK]
Details: spheroids with HUVEC and MSC; for IC50: curve of first compound; for viability, T/C: stronger effect = lower value
Procedure, shortened: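 Tumor cells were grown as spheroids with HUVEC and hMSC (60:25:15) and treated with targeted agents combined with TAK-243 or ipatasertib. Drugs were tested in half-log steps down from near the clinical Cmax, or from 10 microM where Cmax was unknown.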
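Note: spheroids exposed to drugs for seven days before readout.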

SMILES: CC(C)(C)c1nc(-c2cccc(NS(=O)(=O)c3c(F)cccc3F)c2F)c(-c2ccnc(N)n2)s1 + CC(C)NCC(C(=O)N1CCN(c2ncnc3c2C(C)CC3O)CC1)c1ccc(Cl)cc1
- IC50 (second compound 0.3 µM): > 10 µM
- IC50 (second compound 0.949 µM): > 10 µM
- IC50 (second compound 3 µM): > 10 µM
- IC50 (second compound 9.49 µM): > 10 µM
- IC50 (second compound 30 µM): 0.437 µM
- viability, T/C (second compound 0.3 µM, first compound 0.0316 µM): 83.5%
- viability, T/C (second compound 0.3 µM, first compound 0.1 µM): 81%
- viability, T/C (second compound 0.3 µM, first compound 0.316 µM): 79.3%
- viability, T/C (second compound 0.3 µM, first compound 1 µM): 72%
- viability, T/C (second compound 0.3 µM, first compound 3.16 µM): 71.3%
- viability, T/C (second compound 0.3 µM, first compound 10 µM): 63.7%
- viability, T/C (second compound 0.949 µM, first compound 0.0316 µM): 78.4%
- viability, T/C (second compound 0.949 µM, first compound 0.1 µM): 79.7%
- viability, T/C (second compound 0.949 µM, first compound 0.316 µM): 71.9%
- viability, T/C (second compound 0.949 µM, first compound 1 µM): 66.5%
- viability, T/C (second compound 0.949 µM, first compound 3.16 µM): 59.6%
- viability, T/C (second compound 0.949 µM, first compound 10 µM): 57.5%
- viability, T/C (second compound 3 µM, first compound 0.0316 µM): 77.7%
- viability, T/C (second compound 3 µM, first compound 0.1 µM): 74.8%
- viability, T/C (second compound 3 µM, first compound 0.316 µM): 69.9%
- viability, T/C (second compound 3 µM, first compound 1 µM): 58.8%
- viability, T/C (second compound 3 µM, first compound 3.16 µM): 54.4%
- viability, T/C (second compound 3 µM, first compound 10 µM): 53.6%
- viability, T/C (second compound 9.49 µM, first compound 0.0316 µM): 71.6%
- viability, T/C (second compound 9.49 µM, first compound 0.1 µM): 72.4%
- viability, T/C (second compound 9.49 µM, first compound 0.316 µM): 65.5%
- viability, T/C (second compound 9.49 µM, first compound 1 µM): 51.2%
- viability, T/C (second compound 9.49 µM, first compound 3.16 µM): 47.5%
- viability, T/C (second compound 9.49 µM, first compound 10 µM): 52.8%
- viability, T/C (second compound 30 µM, first compound 0.0316 µM): 60%
- viability, T/C (second compound 30 µM, first compound 0.1 µM): 58.4%
- viability, T/C (second compound 30 µM, first compound 0.316 µM): 54.6%
- viability, T/C (second compound 30 µM, first compound 1 µM): 36.1%
- viability, T/C (second compound 30 µM, first compound 3.16 µM): 35.7%
- viability, T/C (second compound 30 µM, first compound 10 µM): 42.6%
